# Measurements taken from the supplement of paper PMC10307832.
# Experiments:
# Assay in all cases: relative viability (nuclei count vs DMSO), 5 days (fraction); higher = more cells survive
# A-427 = tested on: A-427
# Method in brief: (§1)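 After 5 days of treatment, lung cancer cells in 1536-well plates were fixed and stained in a single step (final 0.05% Triton X-100, 1% formaldehyde, 1 ug/ml Hoechst) and their nuclei counted on 4× images. Treatment had been applied by pin tool the day after seeding as one drug alone or as a fixed anchor-drug dose with five library-drug doses (not always all listed) in √10 steps. Relative viability is the nuclei count of treated wells divided by that of vehicle wells, and values are medians of duplicate plates.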
# BEN = tested on: BEN
# Method in brief: as §1
# HARA = tested on: HARA
# Method in brief: as §1
# LCLC-97TM1 = tested on: LCLC-97TM1
# Method in brief: as §1
# LOU-NH91 = tested on: LOU-NH91
# Method in brief: as §1
# LU99A = tested on: LU99A
# Method in brief: as §1
# LXF-289 = tested on: LXF-289
# Method in brief: as §1
# NCI-H1395 = tested on: NCI-H1395
# Method in brief: as §1
# NCI-H1666 = tested on: NCI-H1666
# Method in brief: as §1
# NCI-H1755 = tested on: NCI-H1755
# Method in brief: as §1
# NCI-H1793 = tested on: NCI-H1793
# Method in brief: as §1
# NCI-H1915 = tested on: NCI-H1915
# Method in brief: as §1
# NCI-H1944 = tested on: NCI-H1944
# Method in brief: as §1
# NCI-H2023 = tested on: NCI-H2023
# Method in brief: as §1
# NCI-H2126 = tested on: NCI-H2126
# Method in brief: as §1
# NCI-H2170 = tested on: NCI-H2170
# Method in brief: as §1
# NCI-H23 = tested on: NCI-H23
# Method in brief: as §1
# NCI-H322M = tested on: NCI-H322M
# Method in brief: as §1
# NCI-H441 = tested on: NCI-H441
# Method in brief: as §1
# NCI-H460 = tested on: NCI-H460
# Method in brief: as §1
# NCI-H650 = tested on: NCI-H650
# Method in brief: as §1
# PC-3 [JPC-3] = tested on: PC-3 [JPC-3]
# Method in brief: as §1
# SK-LU-1 = tested on: SK-LU-1
# Method in brief: as §1
compound,measurement,setting,value
O=C(O)CCCCC(CCSCc1ccccc1)SCc1ccccc1 (centres undefined) [CPI-613] + N=C(N)NC(=N)NCCc1ccccc1 [Phenformin] (partner 250 µM),relative viability,A-427; first compound 5 µM,0.279
same,relative viability,A-427; first compound 15.81 µM,0.255
same,relative viability,A-427; first compound 50 µM,0.267
same,relative viability,A-427; first compound 158.11 µM,0.178
same,relative viability,A-427; first compound 500 µM,0.1
same,relative viability,BEN; first compound 5 µM,0.242
same,relative viability,BEN; first compound 15.81 µM,0.251
same,relative viability,BEN; first compound 50 µM,0.255
same,relative viability,BEN; first compound 158.11 µM,0.25
same,relative viability,BEN; first compound 500 µM,0.215
same,relative viability,HARA; first compound 15.81 µM,0.394
same,relative viability,HARA; first compound 50 µM,0.444
same,relative viability,HARA; first compound 158.11 µM,0.267
same,relative viability,HARA; first compound 500 µM,0.0155
same,relative viability,LCLC-97TM1; first compound 5 µM,0.446
same,relative viability,LCLC-97TM1; first compound 15.81 µM,0.325
same,relative viability,LCLC-97TM1; first compound 50 µM,0.405
same,relative viability,LCLC-97TM1; first compound 158.11 µM,0.371
same,relative viability,LCLC-97TM1; first compound 500 µM,0.0437
same,relative viability,LOU-NH91; first compound 5 µM,0.784
same,relative viability,LOU-NH91; first compound 15.81 µM,0.591
same,relative viability,LOU-NH91; first compound 50 µM,0.652
same,relative viability,LOU-NH91; first compound 158.11 µM,0.504
same,relative viability,LOU-NH91; first compound 500 µM,0.526
same,relative viability,LU99A; first compound 5 µM,0.801
same,relative viability,LU99A; first compound 15.81 µM,0.793
same,relative viability,LU99A; first compound 50 µM,0.823
same,relative viability,LU99A; first compound 158.11 µM,0.733
same,relative viability,LU99A; first compound 500 µM,0.0986
same,relative viability,LXF-289; first compound 5 µM,0.516
same,relative viability,LXF-289; first compound 15.81 µM,0.504
same,relative viability,LXF-289; first compound 50 µM,0.511
same,relative viability,LXF-289; first compound 158.11 µM,0.443
same,relative viability,LXF-289; first compound 500 µM,0.0481
same,relative viability,NCI-H1395; first compound 5 µM,0.419
same,relative viability,NCI-H1395; first compound 15.81 µM,0.427
same,relative viability,NCI-H1395; first compound 50 µM,0.433
same,relative viability,NCI-H1395; first compound 158.11 µM,0.457
same,relative viability,NCI-H1395; first compound 500 µM,0.397
same,relative viability,NCI-H1666; first compound 5 µM,0.56
same,relative viability,NCI-H1666; first compound 15.81 µM,0.539
same,relative viability,NCI-H1666; first compound 50 µM,0.534
same,relative viability,NCI-H1666; first compound 158.11 µM,0.26
same,relative viability,NCI-H1666; first compound 500 µM,0.251
same,relative viability,NCI-H1755; first compound 5 µM,0.608
same,relative viability,NCI-H1755; first compound 15.81 µM,0.642
same,relative viability,NCI-H1755; first compound 50 µM,0.558
same,relative viability,NCI-H1755; first compound 158.11 µM,0.533
same,relative viability,NCI-H1755; first compound 500 µM,0.183
same,relative viability,NCI-H1793; first compound 5 µM,0.314
same,relative viability,NCI-H1793; first compound 15.81 µM,0.319
same,relative viability,NCI-H1793; first compound 50 µM,0.45
same,relative viability,NCI-H1793; first compound 158.11 µM,0.194
same,relative viability,NCI-H1793; first compound 500 µM,0.0229
same,relative viability,NCI-H1915; first compound 5 µM,0.374
same,relative viability,NCI-H1915; first compound 15.81 µM,0.372
same,relative viability,NCI-H1915; first compound 50 µM,0.354
same,relative viability,NCI-H1915; first compound 158.11 µM,0.339
same,relative viability,NCI-H1915; first compound 500 µM,0.0398
same,relative viability,NCI-H1944; first compound 5 µM,0.194
same,relative viability,NCI-H1944; first compound 15.81 µM,0.185
same,relative viability,NCI-H1944; first compound 50 µM,0.187
same,relative viability,NCI-H1944; first compound 158.11 µM,0.14
same,relative viability,NCI-H1944; first compound 500 µM,0.0441
same,relative viability,NCI-H2023; first compound 5 µM,0.399
same,relative viability,NCI-H2023; first compound 15.81 µM,0.37
same,relative viability,NCI-H2023; first compound 50 µM,0.36
same,relative viability,NCI-H2023; first compound 158.11 µM,0.0556
same,relative viability,NCI-H2023; first compound 500 µM,0.0073
same,relative viability,NCI-H2126; first compound 5 µM,0.535
same,relative viability,NCI-H2126; first compound 15.81 µM,0.524
same,relative viability,NCI-H2126; first compound 50 µM,0.585
same,relative viability,NCI-H2126; first compound 158.11 µM,0.368
same,relative viability,NCI-H2126; first compound 500 µM,0.0437
same,relative viability,NCI-H2170; first compound 5 µM,0.435
same,relative viability,NCI-H2170; first compound 15.81 µM,0.404
same,relative viability,NCI-H2170; first compound 50 µM,0.38
same,relative viability,NCI-H2170; first compound 158.11 µM,0.352
same,relative viability,NCI-H2170; first compound 500 µM,0.11
same,relative viability,NCI-H23; first compound 5 µM,0.819
same,relative viability,NCI-H23; first compound 15.81 µM,0.746
same,relative viability,NCI-H23; first compound 50 µM,0.803
same,relative viability,NCI-H23; first compound 158.11 µM,0.358
same,relative viability,NCI-H23; first compound 500 µM,0.0072
same,relative viability,NCI-H322M; first compound 5 µM,0.76
same,relative viability,NCI-H322M; first compound 15.81 µM,0.718
same,relative viability,NCI-H322M; first compound 50 µM,0.728
same,relative viability,NCI-H322M; first compound 158.11 µM,0.693
same,relative viability,NCI-H322M; first compound 500 µM,0.0264
same,relative viability,NCI-H441; first compound 5 µM,0.885
same,relative viability,NCI-H441; first compound 15.81 µM,0.734
same,relative viability,NCI-H441; first compound 50 µM,0.79
same,relative viability,NCI-H441; first compound 158.11 µM,0.284
same,relative viability,NCI-H441; first compound 500 µM,0.0276
same,relative viability,NCI-H460; first compound 5 µM,0.521
same,relative viability,NCI-H460; first compound 15.81 µM,0.449
same,relative viability,NCI-H460; first compound 50 µM,0.434
same,relative viability,NCI-H460; first compound 158.11 µM,0.115
same,relative viability,NCI-H460; first compound 500 µM,0.0156
same,relative viability,NCI-H650; first compound 5 µM,0.508
same,relative viability,NCI-H650; first compound 15.81 µM,0.412
same,relative viability,NCI-H650; first compound 50 µM,0.448
same,relative viability,NCI-H650; first compound 158.11 µM,0.371
same,relative viability,NCI-H650; first compound 500 µM,0.333
same,relative viability,PC-3 [JPC-3]; first compound 5 µM,0.474
same,relative viability,PC-3 [JPC-3]; first compound 15.81 µM,0.495
same,relative viability,PC-3 [JPC-3]; first compound 50 µM,0.494
same,relative viability,PC-3 [JPC-3]; first compound 158.11 µM,0.465
same,relative viability,PC-3 [JPC-3]; first compound 500 µM,0.0769
same,relative viability,SK-LU-1; first compound 5 µM,0.547
same,relative viability,SK-LU-1; first compound 15.81 µM,0.479
same,relative viability,SK-LU-1; first compound 50 µM,0.642
same,relative viability,SK-LU-1; first compound 158.11 µM,0.248
same,relative viability,SK-LU-1; first compound 500 µM,0.0581
